# Experimental data: patent US9072737B2, “tPA mutant in the treatment of acute brain injury and neurodegenerative disorders” (HADASIT MEDICAL RESEARCH SERVICES & DEVELOPMENT LTD., priority 2008, dated 2015)
# Tested on: Blood Brain Barrier (BBB)
# Experiment: Blood brain barrier permeability, Evans blue uptake into brain
# Format: in vivo, mice
# Settings: peptide 1 mg/kg i.p. together with tPA 1 mg/kg; FIG. 4A
# Procedure: The uptake of Evans blue dye into a brain tissue served as a marker to for quantifying disruption of the blood-brain barrier and increase in permeability of the BBB. […] Data was expressed as absorbance at 620 nm per gram of tissue. The mean±SEM of data from 8-9 animals/group are shown.
# FIG. 4A. Mice were injected i.p. with 25 μl of saline or saline containing either WT-tPA or mtPA (1 mg/kg each) alone or together with PAI-1 derived 18 amino acids (aa) (as denoted by SEQ ID NO. 8) or 6 aa (as denoted by SEQ ID NO. 3) peptides (1 mg/kg each). Ten minutes later, the mice were given an i.v. injection of 2% Evans blue (EB) in saline. One hour after injection of dye, organs were cleared of blood by transcardiac perfusion. […] Extruded dye was quantified by absorbance at 620 nm. The figure presents a histogram illustration of the absorbance of EB at […] per gram of tissue. […]
# To determine the effect of injection of tPA-S^481A on BBB function, anesthetized mice were injected i.p. with 25 μl of saline or saline containing tPA or tPA mutant (tPA-Ser^481Ala) (1 mg/kg each), followed by the intravenous injection of 2% Evans blue in saline. Evans blue was quantified by absorbance at 620 nm.
# Plasminogen activator inhibitor-1 (PAI-1) is recognized as the inhibitor of tPA. […] Extruded dye was quantified by absorbance at 620 nm. Data are expressed in FIG. 4A as absorbance per gram of tissue.
substance,measurement,value
EEIIMD (listed as Homo sapiens) [reference compound],inhibition of recombinant tPA-induced BBB permeability,failed to decrease
